# Tested on: biosensor 566229815 (RNA, ribozyme) GGGAAACAAACAAAGCUGUCACUGGAUUUCUUGACGAAUGUGCAGGAAACGGCUCCGGUCUGAUGAGUUCGUGGCGGGACGAAACAGCAAAAAGAAAAA
# Assay: CleaveSeq ribozyme cleavage, deconvolution of 256-compound mixtures
# Conditions: sub-mM free Mg2+ (chelated by 9 mM rNTPs); 2 μM each compound in mixtures; ligand inferred ("highly likely"); 37 °C
structure (smiles),measurement,value
C=CC[n+]1c(C=C2C=CC=CN2C)sc2ccccc21,fold change of cleavage,> 2 fold

# — article PMC9477273 (2022)
